Measured values taken from patent US9586956B2, “Isoquinoline and naphthyridine derivatives” (Genentech, Inc., priority 2012, dated 2017).

Target: T1, purified human MAP4K4 kinase domain (Homo sapiens, UniProt O95819)
T1 construct: purified human MAP4K4 kinase domain
Assay: MAP4K4 Inhibition Assay Protocol No. 1 (Caliper LabChip, moesin-derived peptide phosphorylation)
Assay type: biochemical
Conditions: Assay 1; 1 nM enzyme, 10 uM ATP, 45 min
Experimental: The kinase activity of purified human MAP4K4 kinase domain was measured by monitoring the phosphorylation of a peptide substrate derived from moesin protein (Leu-Gly-Arg-Asp-Lys-Tyr-Lys-Thr-Leu-Arg-Gln-Ile-Arg-Gln) fluorescently labeled on the N-terminus with 5-carboxyfluorescein using the Caliper LabChip technology (Caliper Life Sciences, Hopkinton, Mass.). To determine inhibition constants (IC50), compounds were serially diluted in DMSO and added to 10 uL kinase reactions containing 1 nM purified MAP4K4 enzyme, 1 uM peptide substrate, 10 uM ATP, 10 mM MgCl2, 1 mM EGTA, 50 mM Hepes pH 7.2, 1 mM DTT, 0.01% Triton X-100, and 2% DMSO. Reactions were incubated at room temperature in Perkin Elmer Proxiplates for 45 minutes and stopped by the addition of 10 uL of an EDTA-containing solution (50 mM Hepes pH 7.2, 40 mM EDTA, 0.02% Triton X-100). The fraction of phosphorylated peptide was determined as a fraction of total peptide substrate using the Caliper Lab Chip 3000 according to the manufacturer's instructions. IC50 values were determined using the four-parameter non-linear fit model.

T1 sequence (O95819 25-289 limits assumed): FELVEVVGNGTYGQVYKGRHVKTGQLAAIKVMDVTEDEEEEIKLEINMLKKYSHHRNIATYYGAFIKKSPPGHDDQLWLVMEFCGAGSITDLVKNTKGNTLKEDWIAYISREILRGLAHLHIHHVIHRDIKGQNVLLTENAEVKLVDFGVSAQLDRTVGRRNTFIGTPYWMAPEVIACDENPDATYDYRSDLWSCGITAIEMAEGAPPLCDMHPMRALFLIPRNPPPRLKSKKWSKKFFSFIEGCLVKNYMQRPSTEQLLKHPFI

| IC50 [µM] | SMILES |
| --- | --- |
| 0.25 | CC(=O)NCCNC(=O)c1cnc(N)c2cc(-c3cccc(F)c3)ccc12 [Example 80, N-(2-acetamidoethyl)-1-amino-7-(3-fluorophenyl) isoquinoline-4-carboxamide] |
| 0.138 | Nc1ncc(C(=O)NCC(=O)N2CCOCC2)c2ccc(-c3cccc(F)c3)cc12 [Example 81, 1-amino-7-(3-fluorophenyl)-N-(2-morpholino-2-oxo-ethyl)isoquinoline-4-carboxamide] |
| 0.148 | Nc1ncc(C(=O)NCCN2CCNC2=O)c2ccc(-c3cccc(F)c3)cc12 [Example 82, 1-amino-7-(3-fluorophenyl)-N-[2-(2-oxoimidazolidin-1-yl)ethyl]isoquinoline-4-carboxamide] |
| 0.217 | CN1CCN(CCNC(=O)c2cnc(N)c3cc(-c4cccc(F)c4)ccc23)CC1 [Example 83, 1-amino-7-(3-fluorophenyl)-N-[2-(4-methylpiperazin-1-yl)ethyl]isoquinoline-4-carboxamide] |
| 0.557 | C[C@@H](NC(=O)c1cnc(N)c2cc(-c3cccc(F)c3)ccc12)C(N)=O [Example 84, 1-amino-N-[(1R)-2-amino-1-methyl-2-oxo-ethyl]-7-(3-fluorophenyl) isoquinoline-4-carboxamide] |
| 0.363 | C[C@H](NC(=O)c1cnc(N)c2cc(-c3cccc(F)c3)ccc12)C(N)=O [Example 85, 1-amino-N-[(1S)-2-amino-1-methyl-2-oxo-ethyl]-7-(3-fluorophenyl) isoquinoline-4-carboxamide] |
| 0.0081 | CN1CCC(Oc2ccc(NC(=O)c3cnc(N)c4cc(-c5cccc(F)c5)ccc34)cc2)CC1 [Example 86, 1-amino-7-(3-fluorophenyl)-N-[4-[(1-methyl-4-piperidyl)oxy]phenyl] isoquinoline-4-carboxamide] |
| 0.0452 | CNC(=O)c1nc(CNC(=O)c2cnc(N)c3cc(-c4cccc(F)c4)ccc23)no1 [Example 87, 3-[[[1-amino-7-(3-fluorophenyl)isoquinoline-4-carbonyl]amino]methyl]-N-methyl-1,2,4-oxadiazole-5-carboxamide] |
| 0.95 | CC(C)(CNC(=O)c1cnc(N)c2cc(-c3cccc(F)c3)ccc12)N1CCOCC1 [Example 88, 1-amino-7-(3-fluorophenyl)-N-(2-methyl-2-morpholino-propyl)isoquinoline-4-carboxamide] |
| 0.231 | Nc1ncc(C(=O)NCc2cnccn2)c2ccc(-c3cccc(F)c3)cc12 [Example 89, 1-amino-7-(3-fluorophenyl)-N-(pyrazin-2-ylmethyl) isoquinoline-4-carboxamide] |
| 0.141 | COc1ccccc1CNC(=O)c1cnc(N)c2cc(-c3cccc(F)c3)ccc12 [Example 90, 1-amino-7-(3-fluorophenyl)-N-[(2-methoxyphenyl)methyl]isoquinoline-4-carboxamide] |
| 0.0511 | COc1cccc(CNC(=O)c2cnc(N)c3cc(-c4cccc(F)c4)ccc23)c1 [Example 91, 1-amino-7-(3-fluorophenyl)-N-[(3-methoxyphenyl)methyl]isoquinoline-4-carboxamide] |
| 0.0335 | CC(C)CNC(=O)c1cnc(N)c2cc(-c3cccc(F)c3)ccc12 [Example 92, 1-amino-7-(3-fluorophenyl)-N-isobutyl-isoquinoline-4-carboxamide] |
| 0.0645 | Nc1ncc(C(=O)NCc2ccncc2)c2ccc(-c3cccc(F)c3)cc12 [Example 93, 1-amino-7-(3-fluorophenyl)-N-(4-pyridylmethyl) isoquinoline-4-carboxamide] |
| 0.077 | Nc1ncc(C(=O)NCc2cccnc2)c2ccc(-c3cccc(F)c3)cc12 [Example 94, 1-amino-7-(3-fluorophenyl)-N-(3-pyridylmethyl) isoquinoline-4-carboxamide] |
| 0.0391 | Cc1cc(NC(=O)c2cnc(N)c3cc(-c4cccc(F)c4)ccc23)ccn1 [Example 95, 1-amino-7-(3-fluorophenyl)-N-(2-methyl-4-pyridyl) isoquinoline-4-carboxamide] |
| 0.179 | Nc1ncc(C(=O)NCc2ccccn2)c2ccc(-c3cccc(F)c3)cc12 [Example 96, 1-amino-7-(3-fluorophenyl)-N-(2-pyridylmethyl) isoquinoline-4-carboxamide] |
| 0.03 | Nc1ncc(C(=O)NC2CCC2)c2ccc(-c3cccc(F)c3)cc12 [Example 97, 1-amino-N-cyclobutyl-7-(3-fluorophenyl) isoquinoline-4-carboxamide] |
| 0.0459 | Nc1ncc(C(=O)NC2CCCC2)c2ccc(-c3cccc(F)c3)cc12 [Example 98, 1-amino-N-cyclopentyl-7-(3-fluorophenyl) isoquinoline-4-carboxamide] |
| 0.0257 | CCNC(=O)c1cnc(N)c2cc(-c3cccc(F)c3)ccc12 [Example 99, 1-amino-N-ethyl-7-(3-fluorophenyl)isoquinoline-4-carboxamide] |

| IC50 [µM] | SMILES |
| --- | --- |
| 0.0395 | Nc1ncc(C(=O)NCCCO)c2ccc(-c3cccc(F)c3)cc12 [Example 100, 1-amino-7-(3-fluorophenyl)-N-(3-hydroxypropyl) isoquinoline-4-carboxamide] |
| 0.0399 | Nc1ncc(C(=O)NCC2CC2)c2ccc(-c3cccc(F)c3)cc12 [Example 101, 1-amino-N-(cyclopropylmethyl)-7-(3-fluorophenyl) isoquinoline-4-carboxamide] |
| 0.135 | CC(C)NC(=O)c1cnc(N)c2cc(-c3cccc(F)c3)ccc12 [Example 102, 1-amino-7-(3-fluorophenyl)-N-isopropyl-isoquinoline-4-carboxamide] |
| 0.115 | NC(=O)CNC(=O)c1cnc(N)c2cc(-c3cccc(F)c3)ccc12 [Example 103, 1-amino-N-(2-amino-2-oxo-ethyl)-7-(3-fluorophenyl) isoquinoline-4-carboxamide] |
| 0.0909 | Cc1cnc(CNC(=O)c2cnc(N)c3cc(-c4cccc(F)c4)ccc23)cn1 [Example 104, 1-amino-7-(3-fluorophenyl)-N-[(5-methylpyrazin-2-yl)methyl]isoquinoline-4-carboxamide] |
| 0.0377 | Cc1ncccc1NC(=O)c1cnc(N)c2cc(-c3cccc(F)c3)ccc12 [Example 105, 1-amino-7-(3-fluorophenyl)-N-(2-methyl-3-pyridyl) isoquinoline-4-carboxamide] |
| 0.0224 | Nc1ncc(C(=O)Nc2ccncc2)c2ccc(-c3cccc(F)c3)cc12 [Example 106, 1-amino-7-(3-fluorophenyl)-N-(4-pyridyl)isoquinoline-4-carboxamide] |
| 0.0124 | Nc1ncc(C(=O)Nc2cccnc2)c2ccc(-c3cccc(F)c3)cc12 [Example 107, 1-amino-7-(3-fluorophenyl)-N-(3-pyridyl)isoquinoline-4-carboxamide] |
| 0.0156 | Nc1ncc(C(=O)NC2CC2)c2ccc(-c3cccc(F)c3)cc12 [Example 108, 1-amino-N-cyclopropyl-7-(3-fluorophenyl) isoquinoline-4-carboxamide] |
| 0.0774 | Nc1ncc(C(=O)NCCO)c2ccc(-c3cccc(F)c3)cc12 [Example 109, 1-amino-7-(3-fluorophenyl)-N-(2-hydroxyethyl) isoquinoline-4-carboxamide] |
| 0.403 | Nc1ncc(C(=O)NCCC(=O)N2CCOCC2)c2ccc(-c3cccc(F)c3)cc12 [Example 110, 1-amino-7-(3-fluorophenyl)-N-(3-morpholino-3-oxo-propyl)isoquinoline-4-carboxamide] |
| 0.0441 | N#CCNC(=O)c1cnc(N)c2cc(-c3cccc(F)c3)ccc12 [Example 111, 1-amino-N-(cyanomethyl)-7-(3-fluorophenyl) isoquinoline-4-carboxamide] |
| 0.0731 | Nc1ncc(C(=O)NC2CCOC2)c2ccc(-c3cccc(F)c3)cc12 (stereo not shown) [Example 112, 1-amino-7-(3-fluorophenyl)-N-tetrahydrofuran-3-yl-isoquinoline-4-carboxamide] |
| 0.0386 | Nc1ncc(C(=O)NC(CO)CO)c2ccc(-c3cccc(F)c3)cc12 [Example 114, 1-amino-7-(3-fluorophenyl)-N-[2-hydroxy-1-(hydroxy-methyl)ethyl]isoquinoline-4-carboxamide] |
| 0.0454 | Nc1ncc(C(=O)NC2COC2)c2ccc(-c3cccc(F)c3)cc12 [Example 115, 1-amino-7-(3-fluorophenyl)-N-(oxetan-3-yl)isoquinoline-4-carboxamide] |
| 0.114 | Cc1cncc(NC(=O)c2cnc(N)c3cc(-c4cccc(F)c4)ccc23)c1 [Example 116, 1-amino-7-(3-fluorophenyl)-N-(5-methyl-3-pyridyl) isoquinoline-4-carboxamide] |
| 0.07 | Cc1ncc(NC(=O)c2cnc(N)c3cc(-c4cccc(F)c4)ccc23)cn1 [Example 117, 1-amino-7-(3-fluorophenyl)-N-(2-methylpyrimidin-5-yl)isoquinoline-4-carboxamide] |
| 0.0996 | CC(O)CNC(=O)c1cnc(N)c2cc(-c3cccc(F)c3)ccc12 (stereo not shown) [Example 119, 1-amino-7-(3-fluorophenyl)-N-(2-hydroxypropyl) isoquinoline-4-carboxamide] |
| 2.1 | Nc1ncc(C(=O)O)c2ccc(-c3cccc(F)c3)cc12 [Example 123, 1-amino-7-(3-fluorophenyl) isoquinoline-4-carboxylic acid] |
| 0.4 | Nc1ncc(C(=O)NC2CNC2)c2ccc(-c3cccc(F)c3)cc12 [Example 124, 1-amino-N-(azetidin-3-yl)-7-(3-fluorophenyl) isoquinoline-4-carboxamide] |
